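Grown in 96-well plates, cells were treated for 48 hours with each compound at five concentrations. Insufficient inhibition: endpoint recorded as highest concentration tested. GI50 = concentration required for 50% inhibition of growth.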 Activity calls are given as the source filed them. Cut-off read from the data, not from the text of the source: active = GI50 up to about 1.1 µM and inactive = higher.
What was measured:
Experiment in all cases: inhibition of tumour cell growth, NCI panel, 48 h
[1] = tested on: SNB-19
[2] = tested on: MOLT-4
[3] = tested on: EKVX
[4] = tested on: COLO 205
[5] = tested on: DMS-273
[6] = tested on: HCT-15
[7] = tested on: 786-0
[8] = tested on: HCC 2998
[9] = tested on: LOX IMVI
[10] = tested on: LXFL 529
[11] = tested on: SF-539
[12] = tested on: IGROV-1
[13] = tested on: SF-295
[14] = tested on: U-251
[15] = tested on: HOP-62
[16] = tested on: HT-29
[17] = tested on: SF-268
[18] = tested on: UACC-62
[19] = tested on: DLD-1
[20] = tested on: SW-620
[21] = tested on: SR
[22] = tested on: SN12C
[23] = tested on: UO-31
[24] = tested on: M14
[25] = tested on: TK-10
[26] = tested on: SK-OV-3
[27] = tested on: SNB-75
[28] = tested on: NCI-H226
[29] = tested on: M19-MEL
[30] = tested on: A549
[31] = tested on: SNB-78
[32] = tested on: OVCAR-8
[33] = tested on: OVCAR-3
[34] = tested on: NCI-H23
[35] = tested on: NCI-H522
[36] = tested on: KM-20L2
[37] = tested on: HL-60
[38] = tested on: K562
[39] = tested on: SK-MEL-28
[40] = tested on: NCI-H460
[41] = tested on: ACHN
[42] = tested on: HCT-116
[43] = tested on: UACC-257
[44] = tested on: KM12
[45] = tested on: RXF 393
[46] = tested on: RPMI-8226
[47] = tested on: Malme-3M
[48] = tested on: CCRF-CEM
[49] = tested on: MCF7
[50] = tested on: CAKI-1
[51] = tested on: OVCAR-4
[52] = tested on: PC-3
[53] = tested on: HOP-92
[54] = tested on: BT-549
[55] = tested on: SK-MEL-2
[56] = tested on: A498
[57] = tested on: MDA-MB-435
[58] = tested on: T47D
[59] = tested on: MDA-MB-231
[60] = tested on: MDA-N
[61] = tested on: OVCAR-5
[62] = tested on: DU-145
[63] = tested on: Hs-578T
[64] = tested on: SK-MEL-5
[65] = tested on: NCI/ADR-RES

For `CC(=O)OC1CC2CCN3C(=O)c4cc5c(cc4[C@H](C1OC(C)=O)C23)OCO5` (some centres not stated), the GI50 [1] was > 100 µM (inactive), the GI50 [2] was > 100 µM (inactive) and the GI50 [3] was > 100 µM (inactive). For the same molecule, the GI50 [4] was > 100 µM (inactive), the GI50 [5] was > 100 µM (inactive) and the GI50 [6] was > 100 µM. For the same molecule, the GI50 [7] was > 100 µM (inactive), the GI50 [8] was > 100 µM (inactive) and the GI50 [9] was > 100 µM (inactive). For the same molecule, the GI50 [10] was > 100 µM (inactive), the GI50 [11] was > 100 µM (inactive) and the GI50 [12] was > 100 µM (inactive). For the same molecule, the GI50 [13] was > 100 µM (inactive), the GI50 [14] was > 100 µM (inactive) and the GI50 [15] was > 100 µM (inactive). For the same molecule, the GI50 [16] was > 100 µM (inactive), the GI50 [17] was > 100 µM (inactive) and the GI50 [18] was > 100 µM (inactive). For the same molecule, the GI50 [19] was > 100 µM (inactive), the GI50 [20] was > 100 µM (inactive) and the GI50 [21] was > 100 µM (inactive). For the same molecule, the GI50 [22] was > 100 µM (inactive), the GI50 [23] was > 100 µM (inactive) and the GI50 [24] was > 100 µM (inactive). For the same molecule, the GI50 [25] was > 100 µM (inactive), the GI50 [26] was > 100 µM (inactive) and the GI50 [27] was > 100 µM (inactive). For the same molecule, the GI50 [28] was > 100 µM (inactive), the GI50 [29] was > 100 µM (inactive) and the GI50 [30] was > 100 µM (inactive). For the same molecule, the GI50 [31] was > 100 µM (inactive), the GI50 [32] was > 100 µM (inactive) and the GI50 [33] was > 100 µM (inactive). For the same molecule, the GI50 [34] was > 100 µM (inactive), the GI50 [35] was > 100 µM (inactive) and the GI50 [36] was > 100 µM (inactive). For the same molecule, the GI50 [37] was > 100 µM (inactive), the GI50 [38] was > 100 µM (inactive) and the GI50 [39] was > 100 µM (inactive). For the same molecule, the GI50 [40] was > 100 µM (inactive), the GI50 [41] was > 100 µM (inactive) and the GI50 [42] was > 100 µM (inactive). For the same molecule, the GI50 [43] was > 100 µM (inactive), the GI50 [44] was > 100 µM (inactive) and the GI50 [45] was > 100 µM (inactive). The GI50 [46] was > 100 µM (inactive), the GI50 [47] was > 100 µM (inactive) and the GI50 [48] was > 100 µM (inactive).
In the case of `CNC(=O)C(C)NC(=O)C(Cc1ccccc1)NC(=O)c1ccccc1` (configuration not stated), the GI50 [1] is reported as > 100 µM (inactive), the GI50 [2] is reported as > 100 µM (inactive) and the GI50 [49] is reported as > 100 µM (inactive). The GI50 [3] was > 100 µM (inactive), the GI50 [4] was > 100 µM (inactive) and the GI50 [50] was > 100 µM (inactive). The GI50 [6] was > 100 µM, the GI50 [7] was > 100 µM (inactive) and the GI50 [8] was > 100 µM (inactive). For the same molecule, the GI50 [9] was > 100 µM (inactive), the GI50 [11] was > 100 µM (inactive) and the GI50 [51] was > 100 µM (inactive). For the same molecule, the GI50 [12] was > 100 µM (inactive), the GI50 [52] was > 100 µM (inactive) and the GI50 [13] was > 100 µM (inactive). For the same molecule, the GI50 [14] was > 100 µM (inactive), the GI50 [53] was > 100 µM (inactive) and the GI50 [15] was > 100 µM (inactive). For the same molecule, the GI50 [16] was > 100 µM (inactive), the GI50 [54] was > 100 µM (inactive) and the GI50 [17] was > 100 µM (inactive). The GI50 [18] was > 100 µM (inactive), the GI50 [55] was > 100 µM (inactive) and the GI50 [56] was > 100 µM (inactive). For the same molecule, the GI50 [20] was > 100 µM (inactive), the GI50 [57] was > 100 µM (inactive) and the GI50 [21] was > 100 µM (inactive). For the same molecule, the GI50 [22] was > 100 µM (inactive), the GI50 [58] was > 100 µM (inactive) and the GI50 [23] was > 100 µM (inactive). The GI50 [24] was > 100 µM (inactive), the GI50 [25] was > 100 µM (inactive) and the GI50 [26] was > 100 µM (inactive). The GI50 [59] was > 100 µM (inactive), the GI50 [27] was > 100 µM (inactive) and the GI50 [28] was > 100 µM (inactive). The GI50 [60] was > 100 µM (inactive), the GI50 [61] was > 100 µM (inactive) and the GI50 [30] was > 100 µM (inactive). The GI50 [62] was > 100 µM (inactive), the GI50 [32] was > 100 µM (inactive) and the GI50 [33] was > 100 µM (inactive). For the same molecule, the GI50 [63] was > 100 µM (inactive), the GI50 [34] was > 100 µM (inactive) and the GI50 [35] was > 100 µM (inactive). The GI50 [37] was > 100 µM (inactive), the GI50 [38] was > 100 µM (inactive) and the GI50 [39] was > 100 µM (inactive). The GI50 [40] was > 100 µM (inactive), the GI50 [41] was > 100 µM (inactive) and the GI50 [42] was > 100 µM (inactive). The GI50 [64] was > 100 µM (inactive), the GI50 [65] was > 100 µM (inactive) and the GI50 [43] was > 100 µM (inactive). The GI50 [44] was > 100 µM (inactive), the GI50 [45] was > 100 µM (inactive) and the GI50 [46] was > 100 µM (inactive). For the same molecule, the GI50 [47] was > 100 µM (inactive) and the GI50 [48] was > 100 µM (inactive).
